According to US8436047B2, “Preventive or ameliorating agent for liver disease involving hepatopathy” (Suntory Holdings Limited, priority 2004, dated 2013):

Test system: hepatopathy induced by galactosamine (GalN/LPS)
Experiment: Evaluation of 5,8,11-eicosatrienoic acid ethyl ester in an animal model of hepatopathy: serum GOT after GalN/LPS
Format: in vivo
Conditions: male ddY mice, 10 mg/kg orally for one week, then GalN 800 mg/kg / LPS 25 μg/kg i.p., blood six hours after; control group 1024±94 IU/L
Description: Four-week-old male ddY mice were orally given 10 mg/kg of 5,8,11-eicosatrienoic acid ethyl ester (mead acid) purified from the lipid SUNTGM17 prepared in Reference Example 1 for one week, and then they were intraperitoneally given physiological saline in which D-galactosamine and lipopolysaccharide were dissolved to 800 mg/kg and 25 μg/kg and mixed (GalN/LPS). Six hours after the GalN/LPS administration, blood was drawn, serum was separated, and GPT and GOT activities in the serum were determined, which confirmed that the GOT activity was 1024±94 IU/L in the control diet group, whereas it was 413±37 IU/L in the mead acid diet group, indicating a significant suppression of hepatopathy.

Structure (SMILES): CCCCCCCCC=CCC=CCC=CCCCC(=O)OCC [5,8,11-eicosatrienoic acid ethyl ester]
- GOT activity in the serum: 413±37 IU/L
